# Read-outs that look alike come from different tables or passages of the source.
# Experiments:
# Format in all cases: cell-based
# [1] = system: Pseudomonas aeruginosa NCIB 10421; test: MIC and Fractional Inhibitory Concentration (FIC) in microtitre array
# Method: The gram negative bacterium, Pseudomonas aeruginosa NCIB 10421 was grown in nutrient broth to stationary phase during 18 hours and contained approximately 10^9 organisms/ml. A 0.1% (v/v) inoculum was used to seed fresh nutrient broth and 100 μl was then added to each well of a microtitre plate, except for the first well which contained 200 μl.
# Solutions of zinc acetate (ZnAc) and the 2:1 zinc complex of 3-hydroxy-4-methylthiazol-2(3H)-thione (ZHMT), respectively, were prepared in nutrient broth at twice the final concentration to be used in the microtitre array. A microtitre array was prepared with concentration of zinc acetate and ZHMT from twice the MIC down to zero concentration in a 10×10 array. Since the array contains only 96 wells, the highest and lowest concentration of the zinc acetate and ZHMT were omitted. The dilution of the ZHMT was doubled across the ordinate axis of the array by transferring 100 μl aliquots so that the final volume in each well was 200 μl. The microtitre plate was then incubated for 16 to 24 hours at 37° C. and the presence of bacterial growth assessed visually.
# The FIC is defined as the sum of the fractional inhibitory concentration of each component. The FIC of the individual component is the ratio of the concentration of the component in the binary mixture divided by its MIC.
# mixed bacterial culture = test: Preservation of unpreserved latex, repeated challenge with mixed bacterial culture; design: key to Viable bacteria, Third inoculum (days) 5 / Viable bacteria, Third inoculum (days) 7 / Viable bacteria, First inoculum (days) 3 / Viable bacteria, First inoculum (days) 5 / Viable bacteria, First inoculum (days) 7 / Viable bacteria, Second inoculum (days) 3 / Viable bacteria, Second inoculum (days) 5 / Viable bacteria, Second inoculum (days) 7 / Viable bacteria, Third inoculum (days) 3: C is confluent growth over the surface; − is no visible colonies; + is few visible colonies; ++ is clusters of discreet colonies; conditions: for Viable bacteria, First inoculum (days) 3 / Viable bacteria, First inoculum (days) 5 / Viable bacteria, First inoculum (days) 7 / Viable bacteria, Second inoculum (days) 3 / Viable bacteria, Second inoculum (days) 5 / Viable bacteria, Second inoculum (days) 7 / Viable bacteria, Third inoculum (days) 3 / Viable bacteria, Third inoculum (days) 5 / Viable bacteria, Third inoculum (days) 7: latex, Amount 200 ppm of each component present; for antimicrobial activity in latex: zinc salt alone, 200 ppm (Table 1)
# Method: Aliquots (25 parts) of unpreserved latex containing 50% by weight solids of a copolymer of 2-ethylhexylacrylate/acrylic acid at pH 8.5 were formulated with zinc acetate and the 2:1 zinc complex of 3-hydroxy4-methyl thiazol-2(3H)-thione in the amounts shown in Table 1 below. After formulation, each aliquot was stored at 20° C. for 1 week prior to inoculation with a mixed bacterial culture.
# The bacterial culture was prepared by culturing the following seven bacteria in nutrient agar for 24 hours at 30° C.
# Each of the individual bacterium was prepared at a concentration of 10^8 cells/ml in quarter strength Ringers solution by means of a Thoma counting chamber. The mixed inoculum was prepared by mixing equal volumes of the cultures containing the individual bacterium.
# The latex aliquots were repeatedly inoculated at 0, 7 and 14 day intervals with 0.5 ml mixed inoculum (2×10^6 cells/ml) and incubated at 30° C. The number of viable bacteria was determined by streaking a small portion of each aliquot of latex onto nutrient agar after 3, 5 and 7 days followed by visible assessment after incubation for 2 days at 30° C.
# [2] = system: contaminated matt paint millbase; test: Viable cells in contaminated matt paint millbase
# Method: 25 ml Aliquots of a contaminated matt paint millbase were formulated with the 2:1 zinc complex of 3-hydroxy-4-methylthiazol-2(3H)-thione and zinc acetate as shown in Table 2 below. The number of variable cells was determined by streaking a small portion of each aliquot of millbase onto nutrient agar after 5, 7 and 14 days. The number of cells was determined by visible assessment following incubation for 2 days at 30° C.
# [3] = ZnAc replaced by the same weight of the metal salt
compound,measurement,setting,value
[O-]n1ccccc1=S.[O-]n1ccccc1=S.[Zn+2] [2:1 zinc complex of 1-hydroxypyridine-2-thione],synergy with ZnAc,[1]; ZHMT replaced by this complex,no synergy
"CC(=O)[O-].CC(=O)[O-].[Zn+2] [ZA, zinc acetate]",FIC,[1],1
same,Minimum Inhibitory Concentrations (MIC),[1],250 ppm
same,"Viable bacteria, First inoculum (days) 3",mixed bacterial culture,−
same,"Viable bacteria, First inoculum (days) 5",mixed bacterial culture,−
same,"Viable bacteria, First inoculum (days) 7",mixed bacterial culture,−
same,"Viable bacteria, Second inoculum (days) 3",mixed bacterial culture,++
same,"Viable bacteria, Second inoculum (days) 5",mixed bacterial culture,++
same,"Viable bacteria, Second inoculum (days) 7",mixed bacterial culture,++
same,"Viable bacteria, Third inoculum (days) 3",mixed bacterial culture,++
same,"Viable bacteria, Third inoculum (days) 5",mixed bacterial culture,++
same,"Viable bacteria, Third inoculum (days) 7",mixed bacterial culture,++
same,antimicrobial activity in latex,mixed bacterial culture,no antimicrobial activity
same,effect on activity of the metal complex,[2],increases the bacterial activity of the metal complex
"[Cl-].[Cl-].[Zn+2] [ZC, zinc chloride]","Viable bacteria, First inoculum (days) 3",mixed bacterial culture,+
same,"Viable bacteria, First inoculum (days) 5",mixed bacterial culture,−
same,"Viable bacteria, First inoculum (days) 7",mixed bacterial culture,−
same,"Viable bacteria, Second inoculum (days) 3",mixed bacterial culture,++
same,"Viable bacteria, Second inoculum (days) 5",mixed bacterial culture,++
same,"Viable bacteria, Second inoculum (days) 7",mixed bacterial culture,++
same,"Viable bacteria, Third inoculum (days) 3",mixed bacterial culture,C
same,"Viable bacteria, Third inoculum (days) 5",mixed bacterial culture,C
same,"Viable bacteria, Third inoculum (days) 7",mixed bacterial culture,C
same,antimicrobial activity in latex,mixed bacterial culture,no antimicrobial activity
[Cl][Cu][Cl] [cupric chloride],synergy with ZHMT,[1]; [3],no synergy
[Cl][Fe]([Cl])[Cl] [ferric chloride],effect on the ZHMT,[1]; ZnAc replaced with half the weight of the metal salt,antagonistic effect
[Cl-].[Cl-].[Mg+2] [magnesium chloride],synergy with ZHMT,[1],no synergy
manganese chloride,synergy with ZHMT,[1]; [3],no synergy
